The values below come from patent publication US12599583B2, “Small molecule GRB2 stabilizers for Ras map kinase inhibition” (Board of Regents, The University of Texas System, priority 2019, dated 2026).

Test [1] addresses T1, GRB2 (Homo sapiens, UniProt P62993). Put plainly: GRB001 binding to GRB2 by MST. As to conditions: read-out: Kd, in vitro binding to GRB2 by MST. Here is the method:
In vitro binding of GRB001 to GRB2 with 50 μM Kd.

Test [2] deals with MDA-MB-231 triple negative breast cancer cells with G13D k-Ras mutation. Put plainly: EGF induced MAPK activation in MDA-MB-231 cells. It is filed as cell-based.
The target of test [3] is T1, GRB2. The test can be described thus: fluorescence anisotropy assay measuring GRB2 dimerization. The test is classed as biochemical. The settings on record: 100 nM Atto488 labeled GRB2; NB = No Binding (inability to induce GRB2 dimerization); read-out: EC50 anisotropy, compound induced GRB2 dimerization. The protocol:
FIGS. 16A & 16B show fluorescence anisotropy assay data measuring GRB2 dimerization. 100 nM Atto488 labeled GRB2, which is below its dimer forming concentration, was used to identify compounds that induce dimerization. […] Note that NB represent compounds inability to induce GRB2 dimerization.
GRB2 dimerization was measured by fluorescence anisotropy assay. 100 nM Atto488 labeled GRB2, which is below its dimer forming concentration, was used to identify compounds that induce dimerization. […] Note that NB represent compounds inability to induce GRB2 dimerization.

Another test relates to MDA-MB-231 TNBC. Put plainly: apoptosis in MDA-MB-231 tumor cells. It is filed as cell-based. From the text:
GRB001 specifically kills triple negative breast cancer cells through caspase 3/7 mediated apoptosis (FIG. 8B).

For test [4], the target named is T1, GRB2. The test can be described thus: ITC binding to GRB2. The settings on record: read-out: Kd, binding to GRB2 by ITC. From the text: Validation of in vitro binding of GRB001 to GRB2 with ITC as an alternative technique. […] GRB001 is able to bind GRB2 in two different conformations as reflected by the energy signature (inset).
FIGS. 14A-14C show ITC binding isotherm of GRB001 binding to GRB2 as in FIG. 4 (FIG. 14A).

Another test relates to OVCAR8 cells. Put plainly: EGF induced ERK activation in OVCAR8 cells. The test is classed as cell-based.
A further test concerns OVCAR5. The test can be described thus: EGF induced ERK activation in OVCAR5 cells. It is filed as cell-based.
Test [5] concerns RTK induced Ras signaling. Put plainly: EGF and FGF induced MAPK activation in multiple cancer cell-lines. It is filed as cell-based. From the text: GRB001 inhibits RAS/ERK activation while EGFR is fully active (FIG. 6D, top panel and the corresponding active EGFR in bottom panel)
Test [6] concerns A549 (lung adenocarcinoma) cells with G12S KRAS mutation. The test can be described thus: EGF induced MAPK activation in A549 cells. The test is classed as cell-based.
Another test addresses GRB2 dimer interface (Homo sapiens, UniProt P62993). Put plainly: GRB2 monomer dimer equilibrium measurement. The test is classed as biochemical. As to conditions: presence of 100 μM GRB001. The protocol: Measurements of GRB2 monomer dimer equilibrium in the absence (lower, darker line) or presence of 100 μM GRB001 (upper, lighter line).
The test system of a further test is A549 lung cancer cells. Put plainly: apoptosis in A549 tumor cells. It is filed as cell-based.

T1 sequence (P62993 whole entry): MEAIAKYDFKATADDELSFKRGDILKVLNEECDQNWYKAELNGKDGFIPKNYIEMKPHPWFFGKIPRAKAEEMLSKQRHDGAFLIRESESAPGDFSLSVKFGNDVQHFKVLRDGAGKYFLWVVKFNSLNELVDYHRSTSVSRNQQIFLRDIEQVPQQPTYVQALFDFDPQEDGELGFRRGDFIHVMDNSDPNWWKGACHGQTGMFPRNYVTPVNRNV
Sequence of GRB2 dimer interface (P62993 whole entry): as above

For `O=C1Cc2cc(NC(=O)Nc3ccc(F)cc3)ccc2N1` [GRB001], the Kd (commonly a measure of binding affinity in units of concentration) on GRB2 [1] turned out to be 50 µM; at GRB2 [4], 37 µM. Moreover, the “inhibition of EGF induced MAPK activation” value in test [2] and in test [6] was “inhibits RTK induced Ras signaling” in each case. Also, the EC50 (as a rule, the concentration that produces a half-maximal response) on GRB2 [3] turned out to be 49.7 µM. Moreover, the induction of apoptosis entry in the test with MDA-MB-231 TNBC and in the test on A549 lung cancer cells was “induces apoptosis” in each case. Moreover, the “inhibition of EGF induced ERK activation” value in the test on OVCAR8 cells and in the test with OVCAR5 was “inhibition of EGF induced ERK activation” in each case. In test [5], the “inhibition of EGF and FGF induced MAPK activation” value was “inhibits EGF and FGF induced MAPK activation”. In addition, at GRB2 dimer interface, the “effect on GRB2 monomer dimer equilibrium” value is on record as “induce a Kd shift favoring dimerization”.
